Experimental data published in paper PMC12064818, “A general assay platform to study protein pharmacology using ligand-dependent structural dynamics” (Nature Communications, 2025).

The molecules below were run against T1, FLuc-C-HiBiT (Photinus pyralis, UniProt P08659) (assay: biochemical). Conditions: enzyme activity, 10 uM ATP; read-out: IC50 or SDR50 (mM) / FLuc E.
T1 construct: firefly luciferase with C-terminal HiBiT tag, E. coli expressed
T1 sequence (P08659 whole entry, looked up): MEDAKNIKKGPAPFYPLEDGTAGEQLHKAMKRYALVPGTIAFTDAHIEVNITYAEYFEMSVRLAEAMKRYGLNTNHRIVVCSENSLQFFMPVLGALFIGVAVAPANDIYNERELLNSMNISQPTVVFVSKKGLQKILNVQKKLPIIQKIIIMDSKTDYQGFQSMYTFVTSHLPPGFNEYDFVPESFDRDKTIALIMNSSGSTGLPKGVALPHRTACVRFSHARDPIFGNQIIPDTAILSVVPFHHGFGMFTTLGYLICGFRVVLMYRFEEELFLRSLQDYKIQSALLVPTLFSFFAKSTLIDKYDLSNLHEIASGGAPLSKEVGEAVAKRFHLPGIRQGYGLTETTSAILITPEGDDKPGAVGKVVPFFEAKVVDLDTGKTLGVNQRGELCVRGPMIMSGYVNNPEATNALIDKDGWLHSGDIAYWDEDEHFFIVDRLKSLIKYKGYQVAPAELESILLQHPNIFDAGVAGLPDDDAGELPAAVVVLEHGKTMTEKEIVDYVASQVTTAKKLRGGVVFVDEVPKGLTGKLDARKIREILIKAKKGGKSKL

| IC50 [µM] | SMILES |
| --- | --- |
| 15.7 | COC1CCOC2(CCN(C(=O)CCCc3ccccc3)CC2)C1 (stereo not shown) [NCGC00452766-01] |
| 12.4 | COc1ccc(/C=C/c2ccc3c(c2)C(=O)N2CC[C@H](NC(=O)CCC(=O)O)[C@H]2C(=O)N3)cc1 [NCGC00391742-01] |
| 3.13 | COc1ccc(-c2noc(N3CCc4ccccc43)n2)cc1 [NCGC00422328-01] |
| 7 | Cc1cccc(OCCc2noc(C3CN(C(=O)Nc4ccc5c(c4)OCCO5)C3)n2)c1 [NCGC00464383-01] |
| > 30 | CCCCOc1ccc(C(=O)Nc2ccc(-c3nc4ccccc4s3)cc2C)cc1 [NCGC00102367-01] |
| 9.89 | Cn1cc(/C=C2\C(=O)Nc3cccnc32)c2ccccc21 [NCGC00161398-03] |
| 11.1 | COc1ccc(-c2cc(N3CCCC(NC(=O)c4c[nH]c5ccccc45)C3)[nH]n2)cc1 (stereo not shown) [NCGC00437686-01] |
| 1.11 | Cc1cc(-c2nc3cc(F)ccc3s2)ccc1N [NCGC00402259-04] |
| 18 | O=C(Nc1cc(Cl)cc(Cl)c1)c1ccn2nccc2c1 [NCGC00477139-01] |
| > 30 | O=C(COc1ccccc1F)Nc1ccc(-c2nc3ccccc3s2)cc1 [NCGC00118994-02] |
| 0.495 | O=C(O)CCSc1nnc(-c2ccc(Cl)cc2Cl)o1 [NCGC00103142-01] |
| 8.81 | COc1ccccc1OC(C)C(=O)Nc1cccc(-c2nc3ccccc3s2)c1 (stereo not shown) [NCGC00119157-01] |
| 20.2 | Cc1nn(-c2ccc(C(C)C)cc2)c(C)c1[C@@H]1C=C[C@@H](NC(=O)COCC(=O)O)C1 [NCGC00401626-01] |
| > 30 | CC[S+](=O)([O-])c1ccccc1C(=O)Nc1ccc(-c2nc3ccccc3s2)cc1 [NCGC00134164-01] |
| 8.81 | Cc1nc2cc(-c3cccc(F)c3)nn2c(C)c1CCC(=O)NC1CCCCC1 [NCGC00110095-01] |
| 15.7 | OC1(CN2CCCCC2)CCN(c2nc3ccccc3s2)C1 (stereo not shown) [NCGC00437487-01] |
| 9.89 | COC(=O)c1ccc2c(c1)C(=Cc1cc(Br)c(O)c(Br)c1)C(=O)N2 [NCGC00242004-02] |
| > 30 | Oc1ccc(Cl)cc1CN1CCOc2c(O)cc(-c3nc4ccccc4s3)cc2C1 [NCGC00240488-01] |
| 0.157 | Cc1ccc(-n2ncc3c(N4CCCC(C)C4)ncnc32)cc1C (stereo not shown) [NCGC00523591-01] |
| 14 | CCn1cc(-c2ccc(OC)cc2)cc1C(=O)O [NCGC00432677-01] |
| 0.989 | COc1ccc(NC(=O)Nc2cccc(-c3ccc(N4CCCCC4)nn3)c2)c(OC)c1 [NCGC00427636-01] |

| IC50 [µM] | SMILES |
| --- | --- |
| 4.95 | O=C(NC1CCCN(c2cc(-c3ccc(Cl)cc3)n[nH]2)C1)c1ccc2ncccc2c1 (stereo not shown) [NCGC00437446-01] |
| 6.24 | CCCNC(=O)Cn1c(C)ccc(NC(=O)Nc2ccc(OC)cc2)c1=O [NCGC00430826-01] |
| 0.248 | Cc1ccc2c(c1)sc1nc(-c3cc4ccccc4oc3=O)cn12 [NCGC00098323-01] |
| 7.85 | COc1cccc(C(=O)NCCn2ccn3nc(-c4ccc(C)c(C)c4)cc3c2=O)c1OC [NCGC00457018-01] |
| 16.1 | COc1cccc(-c2cccc(COc3cnc4c(ccn4CC(=O)O)c3)c2)c1 [NCGC00418182-01] |
| > 30 | COc1ccc(-c2nc3ccccc3s2)cc1NC(=O)c1ccc(F)cc1 [NCGC00103032-01] |
| 0.7 | Cc1cccc(-n2ncc3c(N4CCCC(C)C4)ncnc32)c1 (stereo not shown) [NCGC00138848-01] |
| > 30 | COc1ccccc1OC(C)C(=O)Nc1ccc(-c2nc3ccccc3s2)cc1 (stereo not shown) [NCGC00119131-01] |
| 12.4 | CSc1ccc(-c2nc3c([nH]2)CC(C)(C)CNC3=O)cc1 [NCGC00448280-01] |
| 5.56 | O=C(Nc1ccc2oc(-c3ccccc3F)nc2c1)c1ccccc1Cl [NCGC00098974-01] |
| 9.89 | COc1ccc(N2CCN(C(=O)c3noc(-c4ccc(C)cc4)n3)CC2)cc1 [NCGC00447127-01] |
| 11.1 | Cc1ccc(-n2ncc3c(N4CCCC(C)C4)ncnc32)c(C)c1 (stereo not shown) [NCGC00081401-03] |
| 15.7 | COc1ccc(C(=O)Nc2ccc3n(c2=O)C[C@H]2C[C@@H]3CN(C(=O)CCCC(=O)O)C2)cc1 [NCGC00397987-01] |
| 12.8 | Cc1ccc(-n2nc(C)c([C@H]3C=C[C@@H](O)C3)c2C)cc1Cl [NCGC00394636-01] |
| 9.89 | CN(C)c1ccc(-c2nc(C3CCOC3)no2)cc1 (stereo not shown) [NCGC00447436-01] |
| 14 | CC(=O)NC1CCN(Cc2cn(-c3ccc(C)cc3)nc2-c2cccc(C)c2)C1 (stereo not shown) [NCGC00437791-01] |
| 0.007 | O=C(O)c1cccc(-c2noc(-c3cccc(F)c3)n2)c1 [NCGC00168760-01] |
| 9.89 | COc1ccccc1C(=O)Nc1onc2c1CCCC2 [NCGC00115908-01] |
| > 30 | COc1ccc(C2=NOC3(CCN([S+](=O)([O-])c4cccs4)C3)C2)cc1 (stereo not shown) [NCGC00476604-01] |
| 7.85 | Cc1ccc(-c2cc3c(=O)n(CCNC(=O)c4cccc5[nH]ccc45)ccn3n2)cc1C [NCGC00457046-01] |
| > 30 | COc1ccc(-c2nc3ccccc3s2)cc1NC(=O)COc1ccc(C)cc1 [NCGC00103030-01] |

| IC50 [µM] | SMILES |
| --- | --- |
| 10.1 | CC(=O)NC1(C)CCN(Cc2cccc(-c3ccc4c(ccn4C)c3)c2)C1 (stereo not shown) [NCGC00410415-01] |
| 11.1 | CCc1ccccc1NC(=O)c1nnn(-c2ccc(F)cc2)c1C [NCGC00104938-01] |
| 0.624 | O=C(Nc1cccc(Cl)c1)c1cc(-c2ccc3c(c2)OCCO3)on1 [NCGC00118845-01] |
| > 30 | O=C(Nc1ccc(O)c(-c2nc3ccccc3s2)c1)c1cc2ccccc2o1 [NCGC00595541-01] |
| 12.4 | CN1CCN(c2ccc(-c3cc4c(ccn4C)c(C(=O)NCCN4CCNC4=O)n3)cc2)CC1 [NCGC00411611-01] |
| 14.3 | COc1ccc(-c2cc3c(cn2)CN(Cc2cccnc2)CCN3)cc1OC [NCGC00411110-01] |
| 11.1 | CCC(=O)N1CCN(c2nc3c(s2)CC(C(=O)O)CC3)CC1 (stereo not shown) [NCGC00432761-01] |
| 0.881 | Fc1ccc(Cc2cn3cc(-c4ccc(F)cc4)nc3s2)cc1 [NCGC00102134-01] |
| 0.556 | O=C(Nc1nc2c(s1)CCCC2)c1ccccc1F [NCGC00118438-01] |
| 0.0197 | CC(C)(C)C(=O)Nc1ccc(-c2nc3ccccc3s2)cc1 [NCGC00118992-01] |
| 9.89 | Cc1ccc(NC(=O)c2oc3ccc4c(c3c2C)C(=O)CC(C)(C)O4)c(C)c1 [NCGC00122260-01] |
| 0.176 | O=[S+]([O-])(c1cccc(Cl)c1)n1c(/C=C/c2ccccc2Cl)nc2ccccc21 [NCGC00139448-01] |
| > 30 | CCCCOc1nc(N)c2[nH]c(=O)n(CCCN(CCCN3CCOCC3)Cc3cccc(CC(=O)OC)c3)c2n1 [NCGC00886690-01] |
| 12.4 | COc1cc(NC(=O)c2ccc(-c3ncn[nH]3)cc2)ccc1NC(=O)C(C)(C)C [NCGC00432557-01] |
| 4.95 | CCOc1ccc(-c2cn3nc(CC(C)C)sc3n2)cc1 [NCGC00117462-01] |
| 9.89 | CC1(Cc2ccc3c(c2)OCO3)CCCN(C(=O)c2ccc3ncsc3c2)C1 (stereo not shown) [NCGC00444241-01] |
| > 30 | Cc1noc(C)c1CC(=O)N1CCOc2c(cc(-c3nc4ccccc4s3)cc2OC2CCOC2)C1 (stereo not shown) [NCGC00239833-01] |
| > 30 | CC(C)Oc1ccc(C(=O)Nc2ccc(-c3nc4ccccc4s3)cc2)cc1 [NCGC00119129-01] |
| 0.989 | Clc1cccc(-n2ncc3c(N4CCCCC4)ncnc32)c1 [NCGC00139126-01] |
| 18 | CCOCC1(C)COc2ccc(C(=O)Nc3ccc(Cl)cc3)cc2N1 (stereo not shown) [NCGC00416138-01] |
| 7.85 | Cc1ccc(C2Cn3nnc(C(=O)N4CCC(C(=O)NC5CC5)CC4)c3CO2)cc1 (stereo not shown) [NCGC00449485-01] |

| IC50 [µM] | SMILES |
| --- | --- |
| 12.4 | CCCc1ccc2oc(C(=O)NCCc3nncn3CC)c(C)c2c1 [NCGC00436423-01] |
| 2.48 | Cc1ccc(-c2cc3c(=O)n(CCNC(=O)C4CCCCC4)ccn3n2)c(C)c1 [NCGC00456958-01] |
| 18 | Cc1ccc(F)cc1-c1ccc(COc2ccc3c(cnn3CCC(=O)O)c2)cc1 [NCGC00418121-01] |
| 4.95 | Cc1ccc(Nc2ncnc3c2nc2n3CCCC2)c(Br)c1 [NCGC00124653-01] |
| 6.24 | COc1ccc(NC(=O)/C(C#N)=C/c2ccc(C)o2)cc1 [NCGC00099040-01] |
| 6.24 | CN1CCN(c2ccc(-c3cccc(N)c3)nn2)CC1 [NCGC00432705-01] |
| 11.1 | COCC(C)Nc1ncnc2c1cnn2-c1cccc(Cl)c1 (stereo not shown) [NCGC00139080-01] |
| 9.89 | COc1ccc(-c2noc(Nc3ccc(C)c(C)c3)n2)cc1 [NCGC00422330-01] |
| > 30 | COc1cccc(-c2nc3cc(NC(=O)c4ccc(C)c([N+](=O)[O-])c4)ccc3s2)c1 [NCGC00348177-01] |
| 8.81 | COc1cccc(-c2cc3c(=O)n(CCNC(=O)c4ccccc4Cl)ccn3n2)c1 [NCGC00457089-01] |
| > 30 | COc1ccc(C(=O)Nc2cccc(-c3nc4ccccc4s3)c2)cc1 [NCGC00596810-02] |
| 20.2 | CN1Cc2ccc(C(=O)NCCOc3ccccc3)cc2OCC1=O [NCGC00418504-01] |
| 0.881 | CCN(c1ncnc2c1cnn2-c1ccc(C)cc1)C1CCCCC1 [NCGC00138994-01] |
| 9.89 | Cc1cccc(C(=O)Nc2ccc(-c3nc4ccccc4s3)c(C)c2)c1 [NCGC00137838-01] |
| 5.56 | COc1cccc(-n2nnc(-c3nc(-c4ccccc4F)no3)c2C)c1 [NCGC00128608-01] |
| 9.89 | CC(Cn1cccn1)Nc1ccc(-c2nc(-c3ccccc3F)no2)cn1 (stereo not shown) [NCGC00427483-01] |
| > 30 | COc1cccc(-c2nc3cc(NC(=O)c4ccc(F)c(C#N)c4)ccc3s2)c1 [NCGC00350766-01] |
| > 30 | CN1CCc2nc3sc(C(=O)Nc4cccc(C#N)c4)c(N)c3cc2C1 [NCGC00103003-01] |
| > 30 | Cc1ccc(C(=O)NC2CC2)cc1-c1ccc2[nH]ncc2c1 [NCGC00242033-03] |

| SMILES | IC50 [µM] |
| --- | --- |
| COc1ccc(-n2cc(C3=CCN(CCN4CCOCC4)CC3)cn2)cc1 [NCGC00432106-01] | 9.89 |
| COc1ccc2c(c1)C1(CCN(C(=O)Nc3ccc4c(c3)OCCO4)C1)C(=O)N2C (stereo not shown) [NCGC00435246-01] | 11.1 |
| CN1CCN(C(=O)COc2ccc(-c3nc4ccccc4s3)cc2)CC1 [NCGC00042506-01] | 0.495 |
